Assay results published in patent US6667311B2, “Nitrogen substituted biaryl purine derivatives as potent antiproliferative agents” (Albany Molecular Research, Inc., priority 2001, dated 2003).

Assays:
Type in all cases: cell-based, human
SK-OV-3 = test: NCI growth inhibition, SK-OV-3; conditions: SK-OV-3 (Ovarian)
UACC-257 = test: NCI growth inhibition, UACC-257; conditions: UACC-257 (Melanoma)
NCI-H522 = test: NCI growth inhibition, NCI-H522; conditions: NCI-H522 (Non-Small Cell Lung)
HCT-15 = test: NCI growth inhibition, HCT-15; conditions: HCT-15 (Colon)
OVCAR-4 = test: NCI growth inhibition, OVCAR-4; conditions: OVCAR-4 (Ovarian)
SF-268 = test: NCI growth inhibition, SF-268; conditions: SF-268 (CNS)
HL-60 (TB) = test: NCI growth inhibition, HL-60 (TB); conditions: HL-60(TB) (Leukemia)
NCI/ADR-RES = test: NCI growth inhibition, NCI/ADR-RES; conditions: NCI/ADR-RES (Breast)
DU-145 = test: NCI growth inhibition, DU-145; conditions: DU-145 (Prostate)
RXF 393 = test: NCI growth inhibition, RXF 393; conditions: RXF 393 (Renal)
MDA-MB-435 = test: NCI growth inhibition, MDA-MB-435; conditions: MDA-MB-435 (Breast)
SF-539 = test: NCI growth inhibition, SF-539; conditions: SF-539 (CNS)
SF-295 = test: NCI growth inhibition, SF-295; conditions: SF-295 (CNS)
HT29 = test: NCI growth inhibition, HT29; conditions: HT29 (Colon)
A498 = test: NCI growth inhibition, A498; conditions: A498 (Renal)
OVCAR-8 = test: NCI growth inhibition, OVCAR-8; conditions: OVCAR-8 (Ovarian)
COLO 205 = test: NCI growth inhibition, COLO 205; conditions: COLO 205 (Colon)
CAKI-1 = test: NCI growth inhibition, CAKI-1; conditions: CAKI-1 (Renal)
SK-MEL-2 = test: NCI growth inhibition, SK-MEL-2; conditions: SK-MEL-2 (Melanoma)
A549/ATCC = test: NCI growth inhibition, A549/ATCC; conditions: A549/ATCC (Non-Small Cell Lung)
MALME-3M = test: NCI growth inhibition, MALME-3M; conditions: MALME-3M (Melanoma)
SW-620 = test: NCI growth inhibition, SW-620; conditions: SW-620 (Colon)
CCRF-CEM = test: NCI growth inhibition, CCRF-CEM; conditions: CCRF-CEM (Leukemia)
RPMI-8226 = test: NCI growth inhibition, RPMI-8226; conditions: RPMI-8226 (Leukemia)
MOLT-4 = test: NCI growth inhibition, MOLT-4; conditions: MOLT-4 (Leukemia)
KM12 = test: NCI growth inhibition, KM12; conditions: KM12 (Colon)
TK-10 = test: NCI growth inhibition, TK-10; conditions: TK-10 (Renal)
ACHN = test: NCI growth inhibition, ACHN; conditions: ACHN (Renal)
M14 = test: NCI growth inhibition, M14; conditions: M14 (Melanoma)
NCI-H23 = test: NCI growth inhibition, NCI-H23; conditions: NCI-H23 (Non-Small Cell Lung)
U251 = test: NCI growth inhibition, U251; conditions: U251 (CNS)
LOX IMVI = test: NCI growth inhibition, LOX IMVI; conditions: LOX IMVI (Melanoma)
SNB-19 = test: NCI growth inhibition, SNB-19; conditions: SNB-19 (CNS)
MDA-MB-231/ATCC = test: NCI growth inhibition, MDA-MB-231/ATCC; conditions: MDA-MB-231/ATCC (Breast)
UO-31 = test: NCI growth inhibition, UO-31; conditions: UO-31 (Renal)
786-0 = test: NCI growth inhibition, 786-0; conditions: 786-0 (Renal)
HS 578T = test: NCI growth inhibition, HS 578T; conditions: HS 578T (Breast)
SK-MEL-5 = test: NCI growth inhibition, SK-MEL-5; conditions: SK-MEL-5 (Melanoma)
K-562 = test: NCI growth inhibition, K-562; conditions: K-562 (Leukemia)
IGROV1 = test: NCI growth inhibition, IGROV1; conditions: IGROV1 (Ovarian)
HCT-116 = test: NCI growth inhibition, HCT-116; conditions: HCT-116 (Colon)
SNB-75 = test: NCI growth inhibition, SNB-75; conditions: SNB-75 (CNS)
T-47D = test: NCI growth inhibition, T-47D; conditions: T-47D (Breast)
BT-549 = test: NCI growth inhibition, BT-549; conditions: BT-549 (Breast)
PC-3 = test: NCI growth inhibition, PC-3; conditions: PC-3 (Prostate)

CC(=O)N[C@H]1CC[C@H](Nc2nc(NCc3ccc(-c4ccccc4)nc3)c3ncn(C(C)C)c3n2)CC1 [Compound 87]
GI50 (SK-OV-3): 350 nM
GI50 (UACC-257): 17 nM
GI50 (NCI-H522): < 10 nM
GI50 (HCT-15): 66 nM
GI50 (OVCAR-4): 48 nM
GI50 (SF-268): < 10 nM
GI50 (HL-60 (TB)): < 10 nM
GI50 (NCI/ADR-RES): 280 nM
GI50 (DU-145): 220 nM
GI50 (RXF 393): 11 nM
GI50 (MDA-MB-435): < 10 nM
GI50 (SF-539): 81 nM
GI50 (SF-295): 47 nM
GI50 (HT29): < 10 nM
GI50 (A498): 100 nM
GI50 (OVCAR-8): 33 nM
GI50 (COLO 205): < 10 nM
GI50 (CAKI-1): 64 nM
GI50 (SK-MEL-2): 56 nM
GI50 (A549/ATCC): < 10 nM
GI50 (MALME-3M): 24 nM
GI50 (SW-620): < 10 nM
GI50 (CCRF-CEM): < 10 nM
GI50 (RPMI-8226): < 10 nM
GI50 (MOLT-4): 20 nM
GI50 (KM12): < 10 nM
GI50 (TK-10): 29 nM
GI50 (ACHN): 190 nM
GI50 (M14): < 10 nM
GI50 (NCI-H23): 22 nM
GI50 (U251): 28 nM
GI50 (LOX IMVI): 27 nM
GI50 (SNB-19): 38 nM
GI50 (MDA-MB-231/ATCC): < 10 nM
GI50 (UO-31): 16 nM
GI50 (786-0): 47 nM
GI50 (HS 578T): < 10 nM
GI50 (SK-MEL-5): 28 nM
GI50 (K-562): 24 nM
GI50 (IGROV1): 52 nM
GI50 (HCT-116): 37 nM
GI50 (SNB-75): 12 nM
GI50 (T-47D): 48 nM
GI50 (BT-549): 20 nM
GI50 (PC-3): 18 nM
